The source of these data is patent publication US11427548B2 (Arvinas Operations, Inc., priority 2015, dated 2022).

The target in the assay is T1, Androgen Receptor (Homo sapiens, UniProt P10275).
T1 construct: endogenous in cells; host or cells: VCaP cells
T1 sequence (P10275 1-920): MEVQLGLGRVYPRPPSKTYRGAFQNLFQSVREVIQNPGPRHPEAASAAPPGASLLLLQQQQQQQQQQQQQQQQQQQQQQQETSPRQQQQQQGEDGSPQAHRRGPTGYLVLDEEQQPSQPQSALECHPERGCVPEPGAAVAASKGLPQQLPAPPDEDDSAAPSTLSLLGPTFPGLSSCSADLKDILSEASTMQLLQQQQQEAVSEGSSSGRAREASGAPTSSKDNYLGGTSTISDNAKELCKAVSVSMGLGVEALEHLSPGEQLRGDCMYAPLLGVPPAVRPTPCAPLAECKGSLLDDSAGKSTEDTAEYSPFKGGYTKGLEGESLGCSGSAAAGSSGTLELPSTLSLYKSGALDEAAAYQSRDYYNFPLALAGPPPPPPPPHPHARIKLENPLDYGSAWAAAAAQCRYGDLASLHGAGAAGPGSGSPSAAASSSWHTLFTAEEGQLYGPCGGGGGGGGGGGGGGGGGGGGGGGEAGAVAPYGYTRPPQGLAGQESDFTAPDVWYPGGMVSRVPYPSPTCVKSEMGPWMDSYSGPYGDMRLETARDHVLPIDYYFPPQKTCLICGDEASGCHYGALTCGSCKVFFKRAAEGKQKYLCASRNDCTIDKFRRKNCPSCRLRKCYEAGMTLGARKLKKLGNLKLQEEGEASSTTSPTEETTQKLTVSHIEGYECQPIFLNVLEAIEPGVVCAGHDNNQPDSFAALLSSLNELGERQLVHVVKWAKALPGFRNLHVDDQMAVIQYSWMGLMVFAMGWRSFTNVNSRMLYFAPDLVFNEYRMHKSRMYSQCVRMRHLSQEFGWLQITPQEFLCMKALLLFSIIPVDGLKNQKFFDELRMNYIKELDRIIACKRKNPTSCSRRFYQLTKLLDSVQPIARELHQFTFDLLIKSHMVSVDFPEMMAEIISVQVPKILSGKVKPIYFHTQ
The assay is described as follows: Androgen Receptor ELISA assay (PathScan AR ELISA) in VCaP cells: AR degradation, Dmax and DC50. In kind it is cell-based. The procedure, abridged: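 After 24 h exposure of VCaP cells (charcoal-stripped serum, 0.1 nM R1881 agonist, 0.1% DMSO) to seven half-log compound concentrations, residual AR in lysates was measured by PathScan ELISA (TMB absorbance, 450 nm). Cells were plated at 30,000/well and grown at least 3 days beforehand.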

Where [1] appears, read: read-out: VCaP DC50; VCaP cells; Table 35.
Where [2] appears, read: VCaP cells; Table 36; read-out: VCaP DC50.
Setting [3] is: VCaP, VCaP cells; Table 36; read-out: VCaP Dmax (%).
[4] abbreviates: read-out: VCaP DC50; VCaP cells; Table 36.

The structures appear in SMILES notation. Like-named read-outs stand apart in the source and are kept apart here. Bounds are passed on as bounds.

For `Cc1ncsc1-c1ccc([C@H](C)NC(=O)[C@@H]2C[C@@H](O)CN2C(=O)[C@@H](NC(=O)COC[C@@H](O)[C@H](O)COc2ccc(-c3ccc(N4C(=S)N(c5ccc(C#N)c(C(F)(F)F)c5)C(=O)C4(C)C)cc3)cc2)C(C)(C)C)cc1` [Example 574], the Dmax (VCaP, read-out: VCaP Dmax (%)) was above 71%. Under setting [1], the DC50 was below 50 nM.

Consider `Cc1ncsc1-c1ccc([C@H](C)NC(=O)[C@@H]2C[C@@H](O)CN2C(=O)[C@@H](NC(=O)COC[C@@H](O)CCOc2ccc(-c3ccc(N4C(=S)N(c5ccc(C#N)c(C(F)(F)F)c5)C(=O)C4(C)C)cc3)cc2)C(C)(C)C)cc1` [Example 575], for which the Dmax (VCaP, read-out: VCaP Dmax (%)) was above 71%. In addition, under setting [1], the DC50 is below 50 nM.

In the case of `Cc1ncsc1-c1ccc([C@H](C)NC(=O)[C@@H]2C[C@@H](O)CN2C(=O)[C@@H](NC(=O)COC[C@H](O)CCOc2ccc(-c3ccc(N4C(=S)N(c5ccc(C#N)c(C(F)(F)F)c5)C(=O)C4(C)C)cc3)cc2)C(C)(C)C)cc1` [Example 576], the Dmax (VCaP, read-out: VCaP Dmax (%)) was above 71%. Besides, the DC50 under setting [1] is below 50 nM.

With `Cc1ncsc1-c1ccc(CNC(=O)[C@@H]2C[C@@H](O)CN2C(=O)[C@@H](NC(=O)COC[C@H](O)[C@@H](O)COc2ccc(C(=O)N[C@H]3C(C)(C)[C@H](Oc4ccc(C#N)c(Cl)c4)C3(C)C)cc2)C(C)(C)C)cc1` [Example 577], the DC50 (VCaP cells; Table 35; read-out: VCaP DC50) was below 50 nM. The Dmax (VCaP, VCaP cells; Table 35; read-out: VCaP Dmax (%)) is above 71%.

In the case of `Cc1ncsc1-c1ccc([C@H](C)NC(=O)[C@@H]2C[C@@H](O)CN2C(=O)[C@H](C(C)C)n2cc(-c3ccnc(OC4CN(c5ccc(C(=O)N[C@H]6C(C)(C)[C@H](Oc7ccc(C#N)c(Cl)c7)C6(C)C)cn5)C4)c3)cn2)cc1` [Example 594, N-((1r,3r)-3-(3-chloro-4-cyanophenoxy)-2,2,,4-tetramethylcyclobutyl)-6-(3-((4-(1-((S)-1-((2S,4R)-4-hydroxy-2-(((S)-1-(4-(4-methylthiazol-5-yl)phenyl)ethyl)carbam-oyl)pyrrolidin-1-yl)-3-methyl-1-oxobutan-2-yl)-1H-pyrazol-4-yl)pyridin-2-yl)oxy)azetidin-1-yl)nicotinamide], the DC50 under setting [2] was above 501 nM. Further, the Dmax under setting [3] was below 25%.

With `Cc1ncsc1-c1ccc([C@H](C)NC(=O)[C@@H]2C[C@@H](O)CN2C(=O)[C@@H](C(C)C)n2cc(-c3ccnc(OC4CN(c5ccc(C(=O)N[C@H]6C(C)(C)[C@H](Oc7ccc(C#N)c(Cl)c7)C6(C)C)cn5)C4)c3)cn2)cc1` [Example 595, N-((1r,3r)-3-(3-chloro-4-cyanophenoxy)-2,2,4,4-tetramethylcyclobutyl)-6-(3-((4-(1-((R)-1-((2S,4R)-4-hydroxy-2-(((S)-1-(4-(4-methylthiazol-5-yl)phenyl)ethyl)carbam-oyl)pyrrolidin-1-yl)-3-methyl-1-oxobutan-2-yl)-1H-pyrazol-4-yl)pyridin-2-yl)oxy)azetidin-1-yl)nicotinamide], under setting [2], the DC50 is below 50 nM. Under setting [3], the Dmax was 51 to 70%.

With `Cc1ncsc1-c1ccc([C@H](C)NC(=O)[C@@H]2C[C@@H](O)CN2C(=O)[C@H](C(C)C)n2cc(-c3ccnc(N4CC[C@@H](Nc5ccc(C(=O)N[C@H]6C(C)(C)[C@H](Oc7ccc(C#N)c(Cl)c7)C6(C)C)cc5)C4)c3)cn2)cc1` [Example 596, (2S,4R)-1-((S)-2-(4-(2-((R)-3-((4-(((1r,3R)-3-(3-chloro-4-cyanophenoxy)-2,2,4,4-tetramethylcyclobutyl)carbamoyl)phenyl)amino)pyrrolidin-1-yl)pyridin-4-yl)-1H-pyrazol-1-yl)-3-methylbutanoyl)-4-hydroxy-N-((S)-1-(4-(4-methylthiazol-5-yl)phenyl)ethyl)pyrroli-dine-2-carboxamide], the DC50 under setting [2] is above 501 nM. The Dmax under setting [3] is 26 to 50%.

As for `Cc1ncsc1-c1ccc([C@H](C)NC(=O)[C@@H]2C[C@@H](O)CN2C(=O)[C@@H](C(C)C)n2cc(-c3ccnc(N4CC[C@@H](Nc5ccc(C(=O)N[C@H]6C(C)(C)[C@H](Oc7ccc(C#N)c(Cl)c7)C6(C)C)cc5)C4)c3)cn2)cc1` [Example 597, (2S,4R)-1-((R)-2-(4-(2-((R)-3-((4-(((1r,3R)-3-(3-chloro-4-cyanophenoxy)-2,2,4,4-tetramethylcylcobutyl)carbamoyl)phenyl)amino)pyrrolidin-1-yl)pyridin-4-yl)-1H-pyrazol-1-yl)-3-methylbutanoyl)-4-hydroxy-N-((S)-1-(4-(4-methylthiazol-5-yl)phenyl)ethyl)pyrroli-dine-2-carboxamide], under setting [2], the DC50 is above 501 nM. Besides, the Dmax under setting [3] was below 25%.

On to `Cc1ncsc1-c1ccc(CNC(=O)[C@@H]2C[C@@H](O)CN2C(=O)[C@H](C(C)C)n2cc(OC3CCN(c4ccc(-c5ccc(N6C(=S)N(c7ccc(C#N)c(C(F)(F)F)c7)C(=O)C6(C)C)cc5)cn4)CC3)cn2)cc1` [Example 598, 1-(2-(4-((1-(5-(4-(3-(4-cyano-3-(trifluoromethyl)phenyl)-5,5-dimethyl-4-oxo-2-thioxoimidazolidin-1-yl)phenyl)pyridin-2-yl)piperidin-4-yl)oxy)-1H-pyrazol-1-yl)-3-mehtylbutanoyl)-4-hydroxy-N-(4-(4-methylthiazol-5-yl)benzyl)pyrrolidine-2-carboxamide], for which the Dmax (VCaP, read-out: VCaP Dmax (%)) was 26 to 50%. Moreover, under setting [4], the DC50 is above 501 nM.

For `Cc1ncsc1-c1ccc(CNC(=O)[C@@H]2C[C@@H](O)CN2C(=O)[C@@H](C(C)C)n2cc(OC3CCN(c4ccc(-c5ccc(N6C(=S)N(c7ccc(C#N)c(C(F)(F)F)c7)C(=O)C6(C)C)cc5)cn4)CC3)cn2)cc1` [Example 599, (2S,4R)-1-((R)-2-(4-((1-(5-(4-(3-(4-cyano-3-(trifluoromethyl)phenyl)-5,5-dimethyl-4-oxo-2-thioxoimidazolidin-1-yl)phenyl)pyridin-2-yl)piperidin-4-yl)oxy)-1H-pyrazol-1-yl)-3-methylbutanoyl)-4-hydroxy-N-(4-(4-methylthiazol-5-yl)benzyl)pyrrolidine-2-carboxamide], the Dmax (VCaP, read-out: VCaP Dmax (%)) was 26 to 50%. Further, the DC50 under setting [4] is above 501 nM.

As to `Cc1ncsc1-c1ccc([C@H](C)NC(=O)[C@@H]2C[C@@H](O)CN2C(=O)[C@H](C(C)C)n2cc(Oc3cccc(OCCCCCOc4ccc(N5C(=S)N(c6ccc(C#N)c(C(F)(F)F)c6)C(=O)C5(C)C)cc4)c3)cn2)cc1` [Example 600, (2S,4R)-1-((S)-2-(4-(3-((5-(4-(3-(4-cyano-3-(trifluoromethyl)phenyl)-5,5-dimethyl-4-oxo-2-thioxoimidazolidin-1-yl)phenoxy)pentyl)oxy)phenoxy)-1H-pyrazol-1-yl)-3-methylbutanoyl)-4-hydroxy-N-((S)-1-(4-(4-methylthiazol-5-yl)phenyl)ethyl)pyrroli-dine-2-carboxamide], the Dmax (VCaP, read-out: VCaP Dmax (%)) lay within 26 to 50%. In addition, the DC50 under setting [4] is above 501 nM.

Consider `Cc1ncsc1-c1ccc(CNC(=O)[C@@H]2C[C@@H](O)CN2C(=O)[C@H](C(C)C)n2cc(Oc3cccc(OCCCCCOc4ccc(N5C(=S)N(c6ccc(C#N)c(C(F)(F)F)c6)C(=O)C5(C)C)cc4)c3)cn2)cc1` [Example 601, (2S,4R)-1-((S)-2-(4-(3-((5-(4-(3-(4-cyano-3-(trifluoromethyl)phenyl)-5,5-dimethyl-4-oxo-2-thioxoimidazolidin-1-yl)phenoxy)pentyl)oxy)phenoxy)-1H-pyrazol-1-yl)-3-methylbutanoyl)-4-hydroxy-N-(4-(4-methylthiazol-5-yl)benzyl)pyrrolidine-2-carboxamide], for which the Dmax (VCaP, read-out: VCaP Dmax (%)) was below 25%. Moreover, under setting [4], the DC50 was above 501 nM.

Take `Cc1ncsc1-c1ccc([C@H](C)NC(=O)[C@@H]2C[C@@H](O)CN2C(=O)[C@@H](C(C)C)n2cc(-c3ccnc(OC4CN(c5ncc(C(=O)NC6C(C)(C)C(Oc7ccc(C#N)c(Cl)c7)C6(C)C)cn5)C4)c3)cn2)cc1` (stereo partly drawn) [Example 603, N-(3-(3-chloro-4-cyanophenoxy)-2,2,4,4-tetramethylcyclobutyl)-2-(3-((4-(1-((R)-1-((2S,4R)-4-hydroxy-2-(((S)-1-(4-(4-methylthiazol-5-yl)phenyl)ethyl)carbam-oyl)pyrrolidin-1-yl)-3-methyl-1-oxobutan-2-yl)-1H-pyrazol-4-yl)pyridin-2-yl)oxy)azetidin-1-yl)pyrimidine-5-carboxamide]: the 50% degradation concentration (DC50) under setting [2] is above 501 nM. For the setting “VCaP, read-out: VCaP Dmax (%), VCaP cells; Table 36”, the Dmax is below 25%.
